# Measured values: the supplement of paper PMC10307832
# Columns and labels:
# Assay in all cases: relative viability (nuclei count vs DMSO), 5 days (fraction); higher = more cells survive
# Tanzisertib + Luminespib = compound: O[C@H]1CC[C@H](Nc2ncc3nc(Nc4c(F)cc(F)cc4F)n([C@H]4CCOC4)c3n2)CC1 [Tanzisertib] + CCNC(=O)c1noc(-c2cc(C(C)C)c(O)cc2O)c1-c1ccc(CN2CCOCC2)cc1 [Luminespib] (partner 0.01 µM)
# Outline: (§1)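 One day after seeding in 1536-well plates, lung cancer cell lines were dosed by pin tool. Dosing was either single-drug or a fixed anchor-drug dose plus five library-drug doses (not always all listed) in √10 steps. After 5 days, nuclei were stained in one fix-and-stain step and counted on 4× images, and relative viability is the nuclei count of treated wells over that of vehicle wells, given as the median of duplicate plates.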
# Tanzisertib + Lapatinib = compound: O[C@H]1CC[C@H](Nc2ncc3nc(Nc4c(F)cc(F)cc4F)n([C@H]4CCOC4)c3n2)CC1 [Tanzisertib] + CS(=O)(=O)CCNCc1ccc(-c2ccc3ncnc(Nc4ccc(OCc5cccc(F)c5)c(Cl)c4)c3c2)o1 [Lapatinib] (partner 2 µM)
# Outline: as §1
# [1] = compound: C1CNCCC1C2=CC(=NN2)C3=CC=NC=C3 + Cc1nc(Nc2ncc(C(=O)Nc3c(C)cccc3Cl)s2)cc(N2CCN(CCO)CC2)n1 [Dasatinib] (partner 0.075 µM)
# Outline: as §1
# [2] = compound: C[C@@H](N)c1ccc(C(=O)Nc2ccnc3[nH]ccc23)cc1 + CS(=O)(=O)N1CCN(Cc2cc3nc(-c4cccc5[nH]ncc45)nc(N4CCOCC4)c3s2)CC1 [Pictilisib] (partner 1 µM)
# Outline: as §1
Cell Line,relative viability (Tanzisertib + Luminespib; first compound 0.08 µM),relative viability (Tanzisertib + Luminespib; first compound 0.253 µM),relative viability (Tanzisertib + Luminespib; first compound 0.8 µM),relative viability (Tanzisertib + Luminespib; first compound 2.53 µM),relative viability (Tanzisertib + Luminespib; first compound 8 µM),relative viability (Tanzisertib + Lapatinib; first compound 0.08 µM),relative viability (Tanzisertib + Lapatinib; first compound 0.253 µM),relative viability (Tanzisertib + Lapatinib; first compound 0.8 µM),relative viability (Tanzisertib + Lapatinib; first compound 2.53 µM),relative viability (Tanzisertib + Lapatinib; first compound 8 µM),relative viability ([1]; first compound 0.8 µM),relative viability ([1]; first compound 2.53 µM),relative viability ([1]; first compound 8 µM),relative viability ([2]; first compound 0.04 µM),relative viability ([2]; first compound 0.1265 µM),relative viability ([2]; first compound 0.4 µM),relative viability ([2]; first compound 1.265 µM),relative viability ([2]; first compound 4 µM),relative viability ([1]; first compound 0.08 µM)
SW 1573,0.294,0.24,0.18,0.187,0.339,0.625,1.09,1,1.01,1.1,0.647,0.658,0.486,0.467,0.56,0.543,0.539,0.43,–
SK-MES-1,0.718,0.692,0.698,0.75,0.499,0.49,0.438,0.455,0.509,0.466,0.221,0.465,0.368,0.375,0.39,0.359,0.395,0.404,0.424
NCI-H1755,0.415,0.51,0.473,0.374,0.547,1.06,0.98,0.995,1.07,0.968,–,0.474,0.399,0.418,0.487,0.517,0.382,0.364,0.483
NCI-H2023,0.966,0.762,0.826,0.628,0.696,0.92,0.809,0.867,0.925,0.261,0.661,0.583,0.567,0.283,0.26,0.403,0.139,0.301,0.48
LC-2-ad,1.15,1.04,1.03,1.07,1.05,0.991,0.978,1.1,0.989,0.868,0.647,0.761,0.739,0.641,0.43,0.696,0.592,0.372,–
NCI-H1666,1.01,0.924,1.05,1.19,1.18,0.669,0.67,0.901,0.622,0.725,0.941,0.821,0.783,0.527,0.407,0.498,0.476,0.728,0.718
201T,1.09,1.06,1.06,1.03,1.05,1.04,1.02,0.997,1.02,1.07,0.561,0.602,0.602,0.702,0.636,0.685,0.519,0.788,0.62
NCI-H2009,1.09,1.06,1.11,1.02,1.04,1.12,0.983,0.847,1.05,0.296,0.265,0.318,0.31,0.77,0.768,0.886,0.22,0.753,0.323
NCI-H1395,0.786,0.525,0.632,0.717,0.547,1.02,1.1,1.08,0.985,0.914,0.345,0.381,0.471,0.566,0.626,0.655,–,0.627,0.399
NCI-H2228,0.2,0.188,0.173,0.162,0.132,1.27,1.15,1.13,1.23,1.13,0.572,0.531,0.484,0.441,0.503,0.335,0.319,0.491,0.594
LU99A,0.204,0.238,0.239,0.26,0.227,1.1,0.934,0.934,1.11,1.2,0.744,0.836,0.645,0.307,0.319,0.385,0.297,0.324,0.522
NCI-H1437,1.18,1.14,1.04,1.27,1.21,0.831,0.859,0.787,0.824,0.778,0.381,0.406,0.45,0.468,0.419,0.407,0.396,0.488,0.464
EKVX,0.974,0.882,0.801,0.833,0.825,0.161,0.186,0.208,0.394,0.197,0.565,0.645,0.525,0.582,0.489,0.532,0.467,0.443,0.576
ABC-1,0.777,0.428,0.518,0.735,0.944,1.17,1,–,1.36,1.41,0.563,0.652,0.497,0.804,0.832,1.07,0.484,0.769,0.55
NCI-H520,0.255,0.253,0.218,0.227,0.202,0.834,0.804,0.827,0.789,0.819,0.163,0.187,0.206,0.33,0.301,0.29,0.396,0.504,0.17
LCLC-97TM1,0.956,0.669,0.803,0.824,0.788,–,0.92,0.696,0.568,0.863,0.784,0.923,0.758,0.257,0.176,0.259,0.106,0.421,0.875
NCI-H2170,0.857,0.739,0.633,0.684,0.78,0.285,0.252,0.26,0.262,0.253,0.52,0.574,0.643,0.337,0.319,0.295,0.204,0.266,0.536
